ChEMBL document CHEMBL1142813, “Synthesis of tripeptides as potent Yersinia protein tyrosine phosphatase inhibitors” (Bioorg Med Chem Lett, 2005)

Key:
[1] = molecular target: T1, Tyrosine-protein phosphatase non-receptor type 1 (Homo sapiens, UniProt P18031); test: Inhibitory concentration against human PTP1B expressed in Escherichia coli BL21 cells
T1 sequence (P18031 whole entry): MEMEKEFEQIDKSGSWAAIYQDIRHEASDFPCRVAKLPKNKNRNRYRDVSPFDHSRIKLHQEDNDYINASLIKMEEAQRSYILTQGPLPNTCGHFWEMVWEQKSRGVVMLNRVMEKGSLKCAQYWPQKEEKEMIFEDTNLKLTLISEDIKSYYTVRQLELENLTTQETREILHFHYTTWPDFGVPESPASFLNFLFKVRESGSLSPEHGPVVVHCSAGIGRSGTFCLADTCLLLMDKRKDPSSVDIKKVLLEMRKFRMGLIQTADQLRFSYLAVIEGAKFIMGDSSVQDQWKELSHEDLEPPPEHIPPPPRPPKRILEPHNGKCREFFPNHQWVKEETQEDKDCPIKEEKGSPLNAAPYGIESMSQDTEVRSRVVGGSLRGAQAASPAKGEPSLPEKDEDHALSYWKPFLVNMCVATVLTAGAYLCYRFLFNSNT

[2] = molecular target: Secreted effector protein (Yersinia pestis, UniProt O68720); test: Inhibitory concentration against Yersinia pestis YopH expressed in Escherichia coli BL21 cells
Chain of Secreted effector protein (O68720 whole entry): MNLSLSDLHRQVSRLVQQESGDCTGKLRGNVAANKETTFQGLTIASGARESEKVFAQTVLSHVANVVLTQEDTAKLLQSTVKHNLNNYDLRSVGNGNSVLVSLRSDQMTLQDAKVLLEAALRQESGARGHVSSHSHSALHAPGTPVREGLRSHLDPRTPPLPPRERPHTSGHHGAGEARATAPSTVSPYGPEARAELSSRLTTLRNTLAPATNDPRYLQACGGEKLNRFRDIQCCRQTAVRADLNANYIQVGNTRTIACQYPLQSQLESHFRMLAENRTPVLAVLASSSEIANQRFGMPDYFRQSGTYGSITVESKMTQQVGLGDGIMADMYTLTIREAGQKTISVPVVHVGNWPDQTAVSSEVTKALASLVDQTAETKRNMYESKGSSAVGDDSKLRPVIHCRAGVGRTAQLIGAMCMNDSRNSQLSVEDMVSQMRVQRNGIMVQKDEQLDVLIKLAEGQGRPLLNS

Q: With `Cc1ccc2c(c1)CCN2CCC(=O)N[C@@H](CCC(=O)OCc1ccccc1)C(=O)N[C@@H](Cc1ccc(OCC(=O)O)cc1)C(=O)C[C@@H](CC(C)C)C(N)=O` as the compound, how does the IC50 [1] read?
A: 4.3 µM

Q: And the IC50 [2]?
A: 5.6 µM

Q: For `CC(C)C[C@H](CC(=O)[C@H](Cc1ccc(OCC(=O)O)cc1)NC(=O)[C@H](CCC(=O)OCc1ccccc1)NC(=O)COc1cccc2ccccc12)C(N)=O`, which IC50 [1] is on record?
A: 13 µM

Q: And the IC50 [2]?
A: 20 µM

Q: `CC(C)C[C@H](CC(=O)[C@H](Cc1ccc(OCC(=O)O)cc1)NC(=O)[C@H](CCC(=O)OCc1ccccc1)NC(=O)CCCc1c[nH]c2ccccc12)C(N)=O` was tested. Which IC50 [1] did it give?
A: > 100 µM

Q: And the IC50 [2]?
A: > 100 µM

Q: How did the IC50 [1] turn out when `CC(C)C[C@H](CC(=O)[C@H](Cc1ccc(OCC(=O)O)cc1)NC(=O)[C@H](CCC(=O)OCc1ccccc1)NC(=O)CCc1c[nH]c2ccccc12)C(N)=O` was run?
A: > 100 µM

Q: What about the IC50 [2] of the same compound?
A: > 100 µM

Q: `CC(C)C[C@H](CC(=O)[C@H](Cc1ccc(OCC(=O)O)cc1)NC(=O)[C@H](CCC(=O)OCc1ccccc1)NC(=O)OCC1c2ccccc2-c2ccccc21)C(N)=O` was tested. Which IC50 [1] did it give?
A: 2.9 µM

Q: What about the IC50 [2] of the same compound?
A: 1.8 µM

Q: Which IC50 [1] does the source give for `COc1ccc(Cn2nnc(CC(=O)N[C@@H](CCC(=O)OCc3ccccc3)C(=O)N[C@@H](Cc3ccc(OCC(=O)O)cc3)C(=O)C[C@@H](CC(C)C)C(N)=O)n2)cc1` here?
A: > 100 µM

Q: What about the IC50 [2] of the same compound?
A: > 100 µM

Q: Which results are given for `CC(C)C[C@H](CC(=O)[C@H](Cc1ccc(C(F)(F)C(=O)O)cc1)NC(=O)[C@H](CCC(=O)OCc1ccccc1)NC(=O)OCC1c2ccccc2-c2ccccc21)C(N)=O`?
A: IC50 [1]: 3.1 µM; IC50 [2]: 2.5 µM

Q: What does the source list for `CC(C)C[C@H](CC(=O)[C@H](Cc1ccc(OC(F)(F)C(=O)O)cc1)NC(=O)[C@H](CCC(=O)OCc1ccccc1)NC(=O)OCC1c2ccccc2-c2ccccc21)C(N)=O`?
A: IC50 [1]: 3.8 µM; IC50 [2]: 1.9 µM

Q: Which results are given for `CC(C)C[C@H](CC(=O)[C@H](Cc1ccc(OCC(=O)O)cc1)NC(=O)[C@H](CNC(=O)OCc1ccccc1)NC(=O)OCC1c2ccccc2-c2ccccc21)C(N)=O`?
A: IC50 [1]: 4.3 µM; IC50 [2]: 2.1 µM

Q: For `CC(C)C[C@H](NC(=O)[C@H](Cc1ccc(OCC(=O)O)cc1)NC(=O)C(CNC(=O)OCc1ccccc1)CNC(=O)OCc1ccccc1)C(N)=O`, which IC50 [1] is on record?
A: 2.8 µM

Q: And the IC50 [2]?
A: 4 µM

Q: Which results are given for `Cc1cn(CC(=O)N[C@@H](CCC(=O)OCc2ccccc2)C(=O)N[C@@H](Cc2ccc(OCC(=O)O)cc2)C(=O)C[C@@H](CC(C)C)C(N)=O)c(=O)[nH]c1=O`?
A: IC50 [1]: > 100 µM; IC50 [2]: > 100 µM

Q: Which results are given for `CC(C)C[C@H](CC(=O)[C@H](Cc1ccc(CC(=O)O)cc1)NC(=O)[C@H](CCC(=O)OCc1ccccc1)NC(=O)OCC1c2ccccc2-c2ccccc21)C(N)=O`?
A: IC50 [1]: 4.6 µM; IC50 [2]: 2.4 µM

Q: `CC(C)C[C@H](CC(=O)[C@H](Cc1ccc(OCC(=O)O)cc1)NC(=O)[C@H](CCC(=O)OCc1ccccc1)NC(=O)COc1ccc2ccccc2c1)C(N)=O` was tested. Which IC50 [1] did it give?
A: 23 µM

Q: And the IC50 [2]?
A: 30 µM

Q: Which results are given for `CC(C)C[C@H](CC(=O)[C@H](Cc1ccc(OCC(=O)O)cc1)NC(=O)[C@H](CCC(=O)OCc1ccccc1)NC(=O)CCc1cccc2ccccc12)C(N)=O`?
A: IC50 [1]: 12 µM; IC50 [2]: 18 µM

Q: Which results are given for `CC(C)C[C@H](CC(=O)[C@H](Cc1ccc(OCC(=O)O)cc1)NC(=O)[C@H](CCC(=O)OCc1ccccc1)NS(=O)(=O)CCc1cccc2ccccc12)C(N)=O`?
A: IC50 [1]: 24 µM; IC50 [2]: 22 µM

Q: For `CC(C)C[C@H](CC(=O)[C@H](Cc1ccc(OCC(=O)O)cc1)NC(=O)[C@H](CCC(=O)OCc1ccccc1)NC(=O)CCc1c2ccccc2cc2ccccc12)C(N)=O`, which IC50 [1] is on record?
A: 6.4 µM

Q: And the IC50 [2]?
A: 12 µM
